#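 Step 1: Grow cells in 96-well plates. Step 2: Expose to compound for 48 hours at 5 concentrations. Step 3: Interpolate endpoints linearly; if unreached, use highest concentration. GI50 marks 50% less growth. TGI is the concentration that stops growth completely.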
# How the values were obtained:
# Assay in all cases: inhibition of tumour cell growth, NCI panel, 48 h
# [1] = tested on: HOP-92 NSCLC
# [2] = tested on: DU-145 prostate
# [3] = tested on: SF-295 CNS
# [4] = tested on: HCC-2998 colon
# [5] = tested on: SK-MEL-28 melanoma
# [6] = tested on: A549 NSCLC
# [7] = tested on: RXF 393 renal
# [8] = tested on: MOLT-4 leukemia
# [9] = tested on: T-47D breast
# [10] = tested on: 786-0 renal
# [11] = tested on: K-562 leukemia
# [12] = tested on: HOP-62 NSCLC
# [13] = tested on: NCI-H226 lung
# [14] = tested on: RPMI-8226 leukemia
# [15] = tested on: OVCAR-4 ovarian
# [16] = tested on: SNB-19 CNS
# [17] = tested on: HT29 colon
# [18] = tested on: BT-549 breast
# [19] = tested on: HS 578T breast
# [20] = tested on: SNB-75 CNS
# [21] = tested on: SK-MEL-5 melanoma
# [22] = tested on: EKVX NSCLC
# [23] = tested on: MALME-3M melanoma
# [24] = tested on: CAKI-1 renal
# [25] = tested on: MCF7 breast
# [26] = tested on: MDA-MB-435
# [27] = tested on: OVCAR-3 ovarian
# [28] = tested on: UACC-257 melanoma
structure (smiles),measurement,setting,value
C#C[C@]1(O)CC[C@H]2[C@@H]3CC=C4c5sc(Nc6ccc(C)cn6)nc5CC[C@]4(C)[C@H]3CC[C@@]21C,GI50,[1],877 nM
same,TGI,[1],4130 nM
same,GI50,[2],1840 nM
same,TGI,[2],11500 nM
same,GI50,[3],184 nM
same,TGI,[3],411 nM
same,GI50,[4],2230 nM
same,TGI,[4],7260 nM
same,GI50,[5],254 nM
same,TGI,[5],727 nM
same,GI50,[6],1350 nM
same,TGI,[6],12300 nM
same,GI50,[7],53.6 nM
same,TGI,[7],261 nM
same,GI50,[8],300 nM
same,GI50,[9],1970 nM
same,TGI,[9],12100 nM
same,GI50,[10],198 nM
same,TGI,[10],610 nM
same,GI50,[11],408 nM
same,TGI,[11],> 100000 nM
same,GI50,[12],1070 nM
same,TGI,[12],4340 nM
same,GI50,[13],2160 nM
same,TGI,[13],8320 nM
same,GI50,[14],199 nM
same,TGI,[14],609 nM
same,GI50,[15],1900 nM
same,TGI,[15],13800 nM
same,GI50,[16],1220 nM
same,TGI,[16],4830 nM
same,GI50,[17],1200 nM
same,TGI,[17],3260 nM
same,GI50,[18],566 nM
same,TGI,[18],3050 nM
same,GI50,[19],265 nM
same,TGI,[19],986 nM
same,GI50,[20],332 nM
same,TGI,[20],3450 nM
same,GI50,[21],1270 nM
same,TGI,[21],2580 nM
same,GI50,[22],994 nM
same,TGI,[22],9920 nM
same,GI50,[23],559 nM
same,TGI,[23],2420 nM
same,GI50,[24],597 nM
same,TGI,[24],4000 nM
same,GI50,[25],402 nM
same,TGI,[25],1920 nM
same,GI50,[26],715 nM
same,TGI,[26],3670 nM
same,GI50,[27],1850 nM
same,TGI,[27],6150 nM
same,GI50,[28],947 nM
same,TGI,[28],3350 nM
